Key:
oral LD50 in mice = settings: mouse, in vivo
intravenous LD50 = settings: mouse, in vivo
Experimental: The corresponding intravenous LD50 is 30 mg./kg. Other LD50 values for compounds of the invention when dosed intravenously are as follows: […]

| Compound | LD50 (oral LD50 in mice) [mg/kg] | LD50 (intravenous LD50; mice, read-out: intravenous LD50) [mg/kg] | LD50 (intravenous LD50; table 1, read-out: LD50) [mg/kg] |
| --- | --- | --- | --- |
| CN1CCC2(CC1)c1ccccc1Sc1c(O)cccc12 [4-hydroxy-1'-methylthioxanthene-9-spiro-4'-piperidine] | > 500 | 30 |  |
| C=CCN1CCC2(CC1)c1ccccc1Sc1c(O)cccc12 [Allyl 4-OH H H H S, 4-hydroxy-1'-allylthioxanthene-9-spiro-4'-piperidine] |  |  | 43 |
| CC(=O)Oc1cccc2c1Sc1cc(Cl)ccc1C21CCN(C)CC1 [Me 4-OAc H 6-Cl H S] |  |  | > 50 |
| CCCN1CCC2(CC1)c1ccccc1Sc1c(O)cccc12 [n-Pr 4-OH H H H S] |  |  | 35 |
